Measured values taken from article PMC11062899, “De novo development of small cyclic peptides that are orally bioavailable” (Nature Chemical Biology, 2023).
“And” between values parts separate entries of the source, which are not always exact repeats. Identical values can stand only once. Like-named read-outs stand apart in the source and are kept apart here.

Assays:
porcine pepsin = biological target: T1, porcine pepsin (Sus scrofa, UniProt P00791); assay: Peptide stability in simulated gastric fluid (SGF); format: in vitro ADME
T1 construct: 0.32 g of porcine pepsin (Sigma-Aldrich, P7125) was dissolved under gentle agitation; purchased Sigma-Aldrich P7125
T1 sequence (P00791 60-385): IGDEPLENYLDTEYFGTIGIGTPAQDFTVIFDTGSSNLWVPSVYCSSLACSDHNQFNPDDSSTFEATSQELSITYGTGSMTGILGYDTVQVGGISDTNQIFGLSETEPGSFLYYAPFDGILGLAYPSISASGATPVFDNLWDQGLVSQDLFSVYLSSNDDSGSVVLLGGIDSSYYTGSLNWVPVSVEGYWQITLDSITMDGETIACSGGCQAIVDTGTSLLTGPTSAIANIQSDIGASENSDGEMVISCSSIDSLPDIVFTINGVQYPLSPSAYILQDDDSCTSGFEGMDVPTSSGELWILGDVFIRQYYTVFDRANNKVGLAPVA
In short: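 Peptide from a 1 mM DMSO stock was added to fluid pre-warmed at 37 °C. SGF was pH 1.2 NaCl with porcine pepsin (0.32 g per 100 ml), and SIF was pH 6.8 potassium phosphate with porcine pancreatin (1 g per 100 ml). Supernatant peptide was quantified by LC–MS, with residual expressed as T1/T0.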

rat α-thrombin = biological target: T2, rat α-thrombin (Rattus norvegicus, UniProt P18292); assay: Protease inhibition, Ki for rat α-thrombin (fluorogenic substrate Z-Gly-Gly-Arg-AMC); format: biochemical; conditions: for Slope normalized to DMSO (proteolytic substrate cleavage over time): replicates R1-R3
T2 construct: rat α-thrombin (Molecular Innovations) were used at final concentrations of 2 nM and 3 nM; purchased Molecular Innovations
In short: (§1)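 Inhibition was measured as AMC fluorescence from 50 μM substrate, monitored for 30 min at 25 °C, relative to a peptide-free control. Human and rat enzymes were present at 2 nM and 3 nM final, respectively, in 50 mM Tris-HCl pH 7.4, 150 mM NaCl, 10 mM MgCl2, 1 mM CaCl2. Ki derives from fitted IC50 via Cheng–Prusoff.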

[1] = Metabolic stability in rat liver microsomes (RLMs); conditions: for TIC value of compound, metabolic stability RLM: replicates R1-R3; for microsomal CLint / half-life: rat
human α-thrombin = human α-thrombin (Homo sapiens, UniProt P00734); assay: Protease inhibition, Ki for human α-thrombin (fluorogenic substrate Z-Gly-Gly-Arg-AMC); format: biochemical; conditions: for Slope normalized to DMSO (proteolytic substrate cleavage over time): replicates R1-R3
In short: as §1

[2] = Passive artificial membrane permeability (PAMPA)

SMILES: O=C1C[C@H]2CCCN2C(=O)[C@H](Cc2ccccc2)NC(=O)[C@@H](NC(=O)c2ccc(Cl)s2)CSC/C=C/CSCCN1 [peptide 32]
- SGF stability, Residual peptide Average (porcine pepsin; after 8 h vs 0 h (TIC), average of R1-R3): 106.85
- SGF stability, Residual peptide (porcine pepsin; after 8 h vs 0 h (TIC), single replicates R1-R3): 117.40 and 115.58 and 87.56
- remaining at 8 h (porcine pepsin; simulated gi fluid, 8 h, 37 °C, pH 1.2, read-out: Proteolytic stability: SGF (8 h) % remaining): 107 ± 17%
- Ki (rat α-thrombin; purified peptide, mean and s.d. of three measurements, read-out: Ki rat α-thrombin): 1.1 ± 0.41 nM
- Slope normalized to DMSO (proteolytic substrate cleavage over time) (rat α-thrombin; rat alpha thrombin, peptide 1.02E-03 uM): 71.6 and 67.2 and 58.0
- Slope normalized to DMSO (proteolytic substrate cleavage over time) (rat α-thrombin; rat alpha thrombin, peptide 1.04E+00 uM): 6.5 and 8.7 and 6.4
- Slope normalized to DMSO (proteolytic substrate cleavage over time) (rat α-thrombin; rat alpha thrombin, peptide 1.27E-04 uM): 89.6 and 85.7 and 79.9
- Slope normalized to DMSO (proteolytic substrate cleavage over time) (rat α-thrombin; rat alpha thrombin, peptide 1.30E-01 uM): 12.8 and 13.3 and 8.9
- Slope normalized to DMSO (proteolytic substrate cleavage over time) (rat α-thrombin; rat alpha thrombin, peptide 1.59E-05 uM): 102.5 and 122.8 and 94.2
- Slope normalized to DMSO (proteolytic substrate cleavage over time) (rat α-thrombin; rat alpha thrombin, peptide 1.63E-02 uM): 35.3 and 31.4 and 27.2
- Slope normalized to DMSO (proteolytic substrate cleavage over time) (rat α-thrombin; rat alpha thrombin, peptide 1.67E+01 uM): 4.8 and 5.1 and 4.2
- Slope normalized to DMSO (proteolytic substrate cleavage over time) (rat α-thrombin; rat alpha thrombin, peptide 2.03E-03 uM): 56.5 and 52.5 and 45.1
- Slope normalized to DMSO (proteolytic substrate cleavage over time) (rat α-thrombin; rat alpha thrombin, peptide 2.08E+00 uM): 5.0 and 7.7 and 6.7
- Slope normalized to DMSO (proteolytic substrate cleavage over time) (rat α-thrombin; rat alpha thrombin, peptide 2.54E-04 uM): 83.1 and 80.0 and 103.6
- Slope normalized to DMSO (proteolytic substrate cleavage over time) (rat α-thrombin; rat alpha thrombin, peptide 2.60E-01 uM): 12.7 and 11.2 and 6.9
- Slope normalized to DMSO (proteolytic substrate cleavage over time) (rat α-thrombin; rat alpha thrombin, peptide 3.18E-05 uM): 95.8 and 95.0 and 90.9
- Slope normalized to DMSO (proteolytic substrate cleavage over time) (rat α-thrombin; rat alpha thrombin, peptide 3.26E-02 uM): 29.1 and 26.7 and 19.1
- Slope normalized to DMSO (proteolytic substrate cleavage over time) (rat α-thrombin; rat alpha thrombin, peptide 3.33E+01 uM): 5.0 and 6.0 and 4.0
- Slope normalized to DMSO (proteolytic substrate cleavage over time) (rat α-thrombin; rat alpha thrombin, peptide 4.07E-03 uM): 51.9 and 49.0 and 39.9
- Slope normalized to DMSO (proteolytic substrate cleavage over time) (rat α-thrombin; rat alpha thrombin, peptide 4.17E+00 uM): 5.5 and 6.1 and 4.2
- Slope normalized to DMSO (proteolytic substrate cleavage over time) (rat α-thrombin; rat alpha thrombin, peptide 5.09E-04 uM): 76.1 and 71.5 and 67.7
- Slope normalized to DMSO (proteolytic substrate cleavage over time) (rat α-thrombin; rat alpha thrombin, peptide 5.21E-01 uM): 9.5 and 9.3 and 6.7
- Slope normalized to DMSO (proteolytic substrate cleavage over time) (rat α-thrombin; rat alpha thrombin, peptide 6.36E-05 uM): 93.9 and 94.0 and 87.7
- Slope normalized to DMSO (proteolytic substrate cleavage over time) (rat α-thrombin; rat alpha thrombin, peptide 6.51E-02 uM): 18.8 and 16.8 and 12.8
- Slope normalized to DMSO (proteolytic substrate cleavage over time) (rat α-thrombin; rat alpha thrombin, peptide 6.67E+01 uM): 5.5 and 6.5 and 3.1
- Slope normalized to DMSO (proteolytic substrate cleavage over time) (rat α-thrombin; rat alpha thrombin, peptide 7.95E-06 uM): 102.1 and 101.6 and 99.0
- Slope normalized to DMSO (proteolytic substrate cleavage over time) (rat α-thrombin; rat alpha thrombin, peptide 8.14E-03 uM): 40.8 and 35.1 and 27.1
- Slope normalized to DMSO (proteolytic substrate cleavage over time) (rat α-thrombin; rat alpha thrombin, peptide 8.33E+00 uM): 4.4 and 7.1 and 3.1
- IC50 (rat α-thrombin; rat alpha thrombin, single replicates R1-R3, read-out: IC50, rat alpha thrombin inhibition): 2.94 nM and 1.12 nM and 1.9 nM
- Ki (rat α-thrombin; rat alpha thrombin, single replicates R1-R3, read-out: Ki, rat alpha thrombin inhibition): 1.63 nM (2×) and 0.618 nM (2×) and 1.05 nM
- TIC value of compound, metabolic stability RLM ([1]; 0 min): 4102350 (2×) and 4260631
- TIC value of compound, metabolic stability RLM ([1]; 5 min): 2223511 and 2018425 and 2686035
- TIC value of compound, metabolic stability RLM ([1]; 15 min): 283425 and 185564 and 435364
- TIC value of compound, metabolic stability RLM ([1]; 30 min): 0 (2×) and 35161
- TIC value of compound, metabolic stability RLM ([1]; 60 min): 0
- TIC value of compound, 0 min, R1 ([1]; rat liver microsomes, 0 min, replicate R1): 4102350
- TIC value of compound, 0 min, R3 ([1]; rat liver microsomes, 0 min, replicate R3): 4260631
- TIC value of compound, 5 min, R1 ([1]; rat liver microsomes, 5 min, replicate R1): 2223511
- TIC value of compound, 5 min, R3 ([1]; rat liver microsomes, 5 min, replicate R3): 2686035
- TIC value of compound, 15 min, R1 ([1]; rat liver microsomes, 15 min, replicate R1): 283425
- TIC value of compound, 15 min, R3 ([1]; rat liver microsomes, 15 min, replicate R3): 435364
- TIC value of compound, 30 min, R1 ([1]; rat liver microsomes, 30 min, replicate R1): 0
- TIC value of compound, 30 min, R3 ([1]; rat liver microsomes, 30 min, replicate R3): 35161
- TIC value of compound, 60 min, R1 ([1]; rat liver microsomes, 60 min, replicate R1): 0
- TIC value of compound, 60 min, R3 ([1]; rat liver microsomes, 60 min, replicate R3): 0
- microsomal CLint ([1]; CL (ul/min/mg protein), R1, RLM CL, replicate R1, unrounded): 278 µL/min/mg
- microsomal CLint ([1]; CL (ul/min/mg protein), R2, RLM CL, replicate R2, unrounded): 276 µL/min/mg
- microsomal CLint ([1]; CL (ul/min/mg protein), R3, RLM CL, replicate R3, unrounded): 234 µL/min/mg
- half-life ([1]; Half Life (min) in RLMs (single replicates R1–R3), Fig. 5e source data): 4.98 min
- half-life ([1]; Half Life (min), R1, RLM metabolic stability, replicate R1): 4.98 min
- half-life ([1]; Half Life (min), R2, RLM metabolic stability, replicate R2): 5.02 min
- half-life ([1]; Half Life (min), R3, RLM metabolic stability, replicate R3): 5.93 min
- microsomal CLint ([1]; microsomes, Clearance (CL) in RLMs, calculated from half-life, mean and s.d. of three measurements): 260 ± 20 µL/min/mg
- half-life ([1]; microsomes, Half Life, RLM, individual replicates R1-R3): 4.98 min
- half-life ([1]; microsomes, Metabolic stability: Half life T1/2 (min), RLMs, mean and SD, three measurements): 5.3 ± 0.4 min
- microsomal CLint ([1]; microsomes, RLM CL, Average, average of R1-R3): 263 µL/min/mg
- microsomal CLint ([1]; microsomes, RLM CL, R1, RLM CL, replicate R1, summary block): 278 µL/min/mg
- microsomal CLint ([1]; microsomes, RLM CL, R2, RLM CL, replicate R2, summary block): 276 µL/min/mg
- microsomal CLint ([1]; microsomes, RLM CL, R3, RLM CL, replicate R3, summary block): 234 µL/min/mg
- Slope normalized to DMSO (proteolytic substrate cleavage over time) (human α-thrombin; human alpha thrombin, peptide 1.02E-03 uM): 91.7 and 75.0 and 84.5
- Slope normalized to DMSO (proteolytic substrate cleavage over time) (human α-thrombin; human alpha thrombin, peptide 1.04E+00 uM): 9.7 and 14.2 and 12.5
- Slope normalized to DMSO (proteolytic substrate cleavage over time) (human α-thrombin; human alpha thrombin, peptide 1.27E-04 uM): 92.1 and 89.4 and 95.4
- Slope normalized to DMSO (proteolytic substrate cleavage over time) (human α-thrombin; human alpha thrombin, peptide 1.30E-01 uM): 16.4 and 22.7 and 18.5
- Slope normalized to DMSO (proteolytic substrate cleavage over time) (human α-thrombin; human alpha thrombin, peptide 1.59E-05 uM): 104.8 and 95.5 and 101.0
- Slope normalized to DMSO (proteolytic substrate cleavage over time) (human α-thrombin; human alpha thrombin, peptide 1.63E-02 uM): 54.1 and 48.1 and 57.3
- Slope normalized to DMSO (proteolytic substrate cleavage over time) (human α-thrombin; human alpha thrombin, peptide 1.67E+01 uM): 4.0 and 6.4 and 1.8
- Slope normalized to DMSO (proteolytic substrate cleavage over time) (human α-thrombin; human alpha thrombin, peptide 2.03E-03 uM): 79.8 and 80.8 and 68.0
- Slope normalized to DMSO (proteolytic substrate cleavage over time) (human α-thrombin; human alpha thrombin, peptide 2.08E+00 uM): 5.1 and 8.3 and -0.433
- Slope normalized to DMSO (proteolytic substrate cleavage over time) (human α-thrombin; human alpha thrombin, peptide 2.54E-04 uM): 93.1 and 85.9 and 92.0
- Slope normalized to DMSO (proteolytic substrate cleavage over time) (human α-thrombin; human alpha thrombin, peptide 2.60E-01 uM): 11.6 and 16.8 and 13.0
- Slope normalized to DMSO (proteolytic substrate cleavage over time) (human α-thrombin; human alpha thrombin, peptide 3.18E-05 uM): 103.7 and 94.2 and 96.3
- Slope normalized to DMSO (proteolytic substrate cleavage over time) (human α-thrombin; human alpha thrombin, peptide 3.26E-02 uM): 46.3 and 39.7 and 47.4
- Slope normalized to DMSO (proteolytic substrate cleavage over time) (human α-thrombin; human alpha thrombin, peptide 3.33E+01 uM): -4.9 and 8.0 and -5.2
- Slope normalized to DMSO (proteolytic substrate cleavage over time) (human α-thrombin; human alpha thrombin, peptide 4.07E-03 uM): 68.4 and 49.8 and 67.1
- Slope normalized to DMSO (proteolytic substrate cleavage over time) (human α-thrombin; human alpha thrombin, peptide 4.17E+00 uM): 7.1 and 16.4 and 0.5
- Slope normalized to DMSO (proteolytic substrate cleavage over time) (human α-thrombin; human alpha thrombin, peptide 5.09E-04 uM): 91.3 and 86.2 and 83.7
- Slope normalized to DMSO (proteolytic substrate cleavage over time) (human α-thrombin; human alpha thrombin, peptide 5.21E-01 uM): 9.0 and 17.4 and 10.1
- Slope normalized to DMSO (proteolytic substrate cleavage over time) (human α-thrombin; human alpha thrombin, peptide 6.36E-05 uM): 103.6 and 90.9 and 101.0
- Slope normalized to DMSO (proteolytic substrate cleavage over time) (human α-thrombin; human alpha thrombin, peptide 6.51E-02 uM): 26.8 and 23.7 and 23.8
- Slope normalized to DMSO (proteolytic substrate cleavage over time) (human α-thrombin; human alpha thrombin, peptide 6.67E+01 uM): 5.5 and 8.8 and 5.2
- Slope normalized to DMSO (proteolytic substrate cleavage over time) (human α-thrombin; human alpha thrombin, peptide 7.95E-06 uM): 105.4 and 96.7 and 100.1
- Slope normalized to DMSO (proteolytic substrate cleavage over time) (human α-thrombin; human alpha thrombin, peptide 8.14E-03 uM): 56.5 and 45.5 and 52.6
- Slope normalized to DMSO (proteolytic substrate cleavage over time) (human α-thrombin; human alpha thrombin, peptide 8.33E+00 uM): -1.1 and 9.3 and 3.5
- IC50 (human α-thrombin; human alpha thrombin, single replicates R1-R3, read-out: IC50, human alpha thrombin inhibition): 13.6 nM and 7.3 nM and 13.8 nM
- Ki (human α-thrombin; human alpha thrombin, single replicates R1-R3, read-out: Ki, human alpha thrombin inhibition): 10.4 nM (2×) and 5.65 nM (2×) and 10.6 nM (2×)
- Ki (human α-thrombin; purified peptide, mean and s.d. of three measurements, read-out: Ki human α-thrombin): 8.9 ± 2.3 nM
- PAMPA permeability: % permeability ([2]; 50 μM, 12–18 h, acceptor concentration relative to equilibrium): 47 ± 12%
- Papp at 50 μM ([2]; PAMPA, pH 7.4): 6.17 ×10⁻⁶ cm/s
- Permeability% Average ([2]; top well sample vs theoretical equilibrium sample (TIC), average of R1-R3): 46.9%
- Permeability% ([2]; top well sample vs theoretical equilibrium sample (TIC), single replicates R1-R3): 48.47% and 34.58% and 57.51%
